The values below come from US5711020A (priority 1996, dated 1998).

Data set [1] deals with purified TNT-reducing agent.
Assay in data set [2]: not given
The source holds these as a separate data set.

Assay in data set [3]: not given
The source holds these as a separate data set.

A further data set relates to TNT reducing enzyme. The format is biochemical.
Another data set deals with nitrilase. The format is biochemical.

“And” between values parts separate entries of the source, which are not always exact repeats. Equal values may be shown once. Read-outs that look alike come from different tables or passages of the source.

Turning to `ClC(Br)C(Cl)Br` (stereo not drawn) [1,2-Dibromo-1,2-dichloroethane], for the setting “pH 7.2”, the “Rate Constant k” value is 5.44E-03 min - 1 and 4.54E-03 min - 1.

As for `BrCCBr` [1,2-Dibromoethane], the “Rate Constant k” value (pH 7.2) was determined as 7.13E-04 min - 1. Besides, the Half life (vechten pond sediment, pH 7.2) was found to be 16.2 h.

`ClC(Cl)(Cl)Cl` [Carbontetrachloride] yielded a Half life (breukelveen sediment, pH 7.6) of 10.0 h. The “Rate Constant k” value (pH 7.6) came out at 1.16E-03 min - 1.

`ClC(Cl)(Cl)C(Cl)(Cl)Cl` [HCA, hexachloroethane] yielded a Half-life in the data set on purified dehalogenase (30 µM) of 3.33 h. This compound yielded a Half life (breukelveen sediment, pH 7.6) of 0.5 h; a Half life (dommel sediment, 0.0732 µM, pH 7.5) of 1.5 h; a Half life (loosdrechtse plassen sediment, 0.0732 µM, pH 7.7) of 9.5 h; a Half life (vechten pond sediment, pH 7.2) of 5.0 h. In addition, the “Rate Constant k” value is 2.33E-03 min - 1 (pH 7.2), 7.62E-03 min - 1 (pH 7.5), 2.47E-02 min - 1 (pH 7.6) and 1.22E-03 min - 1 (pH 7.7).

With `Ic1ccccc1` [Iodobenzene], the “Rate Constant k” value (pH 7.2) is on record as 2.55E-05 min - 1. Further, the Half life (vechten pond sediment, pH 7.2) was 453.0 h.

Compound `BrC(Br)=C(Br)Br` [PBE, tetrabromoethene] showed a Half-life with purified dehalogenase (30 µM) of 18.33 h.

On to `ClC(Cl)=C(Cl)Cl` [PCE, tetrachloroethene], for which the Half-life in the data set with purified dehalogenase (60 µM) stood at 3.33 h; with purified dehalogenase (100 µM) it was 10 h. Further, the “Rate Constant k” value (pH 7.2) was 4.05E-05 min - 1. For the setting “vechten pond sediment, pH 7.2”, this compound yielded a Half life of 285.5 h.

In the data set with purified dehalogenase (60 µM), `ClC=C(Cl)Cl` [TCE, trichloroethene] came in with a Half-life of 3.33 h.

With `IC(I)=C(I)I` [Tetraiodoethene], the “Rate Constant k” value (pH 7.2) is 9.22E-02 min - 1. This compound gave a Half life (vechten pond sediment, pH 7.2) of 0.1 h.

The compound `O=[N+]([O-])c1ccccc1` [nitrobenzene] returned a Half-life in data set [1] of 28 h. The “kcorr, calculated maximum rate assuming a 10% analytical method error” value in data set [2] (pH 2.5) is 0.25 ± 0.025 10^4 m^-1; in data set [2] (pH 3.85) it was 0.12 ± 0.012 10^4 m^-1. In addition, the kcorr in data set [2] (pH 5.3) was 4.6 ± 0.24 10^4 m^-1; in data set [2] (pH 7) it was 4.2 ± 0.20 10^4 m^-1; in data set [2] (pH 7.75), 8.5 ± 0.77 10^4 m^-1; in data set [2] (pH 9.15) it was 9.3 ± 0.62 10^4 m^-1; in data set [2] (pH 10.55), 7.8 ± 1.2 10^4 m^-1. Moreover, the “kobs, observed first-order disappearance rate constant and standard deviation” value in data set [2] (pH 5.3) was 4.0 ± 0.21 10^-4 m^-1; in data set [2] (pH 7) it was 3.8 ± 0.18 10^-4 m^-1; in data set [2] (pH 7.75), 7.7 ± 0.70 10^-4 m^-1; in data set [2] (pH 9.15), 8.6 ± 0.57 10^-4 m^-1; in data set [2] (pH 10.55), 6.6 ± 1.0 10^-4 m^-1. For the same compound, the t1/2 worked out at 0.35 h in data set [3] (bar-h sediment), 2.37 h in data set [3] (beaver dam sediment), 2.37 h in data set [3] (hickory hill sediment) and 2 h in data set [3] (memorial park sediment).

On to chymotrypsin, for which the “effect on TNT-reducing activity” value in the data set with TNT reducing enzyme is listed as “no inhibition”. In addition, the “effect on activity of the nitrilase” value with nitrilase was “inhibited”.

As for trypsin, the “effect on TNT-reducing activity” value in the data set on TNT reducing enzyme is listed as “no inhibition”. In addition, in the data set on nitrilase, the “effect on activity of the nitrilase” value is given as “inhibited”.
